Like-named read-outs stand apart in the source and are kept apart here. Square brackets hold non-standard residues; d marks the D form. Peptide text beside a SMILES is read from it. * marks the point of attachment. Sta = CC(C)C[C@H](N)[C@@H](O)CC(=O)O; Isovaleryl = CC(C)CC(=O)*
How the values were obtained:
Format in all cases: biochemical
Pepsin = Pepsin (Sus scrofa, UniProt P00791); test: Inhibition of pepsin, solid phase tubulin immunoassay, Table I
Description: (§1) Covalent linkage of tubulin to the support
(§2) 0.150 ml of a freshly made phosfate buffered saline (PBS) solution (pH=7.3) containing 0.03 mg of bis(sulfo-succinidimyl)suberate (BS3, Pierce, Rockford, Ill.) are dispensed into each well of a cova-link 96 wells plate (Nunc). The solution is left in the wells at room temperature for 90 minutes, afterwards the wells are washed three times with PBS solution.
(§3) Afterwards, 0,150 ml of a PBS solution containing 5% glycine (v/v) and 0.75 μg of tubulin obtained according to Example 1 is added to each well. After 90 minutes at room temperature, the solution is removed and 0.3 ml of a 5% glycine PBS solution are added. After about 2 hours, the wells are washed with fresh PBS solution.
(§4) Determination of the anti-proteolytic activity
(§5) 0.15 ml of a solution containing a proteolytic activity and a known inhibitor (concentration from 0.01 to 10 μg/ml) are added to the wells treated according to Example 2 or Example 2a and incubated for 2 hours at 37° C.
(§6) The employed proteolytic enzymes are:
Aspartic class: pepsin (5 μg/ml), cathepsin D (5 μg/ml), renin (5 μg/ml) and Hiv-1 protease (5 μg/ml), in a 50 mM acetate buffer solution (pH=5.5) containing 0.01% Tween 20 (Pierce);
(§7) After three rapid washing with PBS solution (pH=7.3), the inhibitory activity is determined as follows:
(§8) A YL 1/2 antibody solution (Amersham) diluted 1:1000 in PBS buffer is added to each well and incubated for 1 hour at room temperature. After three rapid washing with PBS solution, an anti-rat peroxydated antibody solution (Amersham) diluted 1:1000 in PBS buffer is added to each well and incubated for 1 hour at room temperature. After 10-15 minutes, the colour is developed with a 0.5 M citric acid solution (pH=5.5) containing 1 mg/ml of o-phenylendiamine. After 5-10 minutes, the reaction is stopped with H2 SO4 4 M. The colour is detected on a Titertek Multiscan MCC340-HK spectrophotometer reading the absorbance at 492 nm.

Subtilisin = test: Inhibition of subtilisin, solid phase tubulin immunoassay, Table I; conditions: subtilisin 0.25 μg/ml, 20 mM TRIS pH 7.4, 2 hours at 37° C.; inhibitor 0.01 to 10 μg/ml
Description: as §1, §2, §3, §4, §5, §6
(§9) Serine class: trypsin (0.25 μg/ml), subtilisin (0.25 μg/ml), elastase (0.5 μg/ml) and cathepsin G (5 μg/ml), in a 20 mM solution of Tris-hydroxymethyl-aminomethanchloride (TRIS) (pH=7.4);
(§10) Table I reports the concentration of these inhibitors which determines a 50% inhibition of the above proteases.
as §7, §8

Papain [1] = target: Papain (Carica papaya, UniProt P00784); test: Inhibition of papain, solid phase tubulin immunoassay, Table I; conditions: papain 0.25 μg/ml, 50 mM acetate pH 5.5, 5 mM cysteine, 2 hours at 37° C.; inhibitor 0.01 to 10 μg/ml; read-out: Concentration of inhibitor in the proteolytic solution which determines the 50% inhibition of the protease (converted)
Description: as §1, §2, §3, §4, §5, §6
(§11) Cysteine class: papain (0.25 μg/ml) and cathepsin B (10 μg/ml) in a 50 mM acetate buffer solution (pH=5.5) containing 5 mM cysteine.
as §10, §7, §8

Cathepsin G = target: T1, Cathepsin G (Homo sapiens, UniProt P08311); test: Inhibition of cathepsin G, solid phase tubulin immunoassay, Table I
T1 sequence (P08311 21-255): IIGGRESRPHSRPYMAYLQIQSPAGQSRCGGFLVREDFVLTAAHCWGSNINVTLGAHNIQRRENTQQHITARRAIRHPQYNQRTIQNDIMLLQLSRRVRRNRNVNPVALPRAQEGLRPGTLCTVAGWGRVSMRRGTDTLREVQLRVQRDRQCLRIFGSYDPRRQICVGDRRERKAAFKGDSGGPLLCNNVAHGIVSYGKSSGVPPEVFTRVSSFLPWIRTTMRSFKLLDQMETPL
Description: as §1, §2, §3, §4, §5, §6, §9, §10, §7, §8

[2] = test system: proteases of the aspartic class; test: Specificity for protease classes, solid phase tubulin immunoassay; conditions: in words
Description: (§12) As mentioned above, the first step of the present assay is the contact of the supported tubulin or tubulin-like peptide with a solution containing a proteolytic activity as above described. By contacting solutions containing different proteolytic activities and a same inhibitor substance, it is possible to determine both the specificity of said inhibitor against the selected protease and the percentage of inhibition.
as §4, §5, §6
Aspartic class: pepsin (5 μg/ml), cathepsin D (5 μg/ml), renin (5 μg/ml) and Hiv-1 protease (5 μg/ml), in a 50 mM acetate buffer solution (pH=5.5) containing 0.01% Tween 20 (Pierce); […]
as §7
(§13) A YL 1/2 antibody solution (Amersham) diluted 1:1000 in PBS buffer is added to each well and incubated for 1 hour at room temperature. […] After 5-10 minutes, the reaction is stopped with H2 SO4 4 M. The colour is detected on a Titertek Multiscan MCC340-HK spectrophotometer reading the absorbance at 492 nm.

Elastase = test: Inhibition of elastase, solid phase tubulin immunoassay, Table I; conditions: elastase 0.5 μg/ml, 20 mM TRIS pH 7.4, 2 hours at 37° C.; inhibitor 0.01 to 10 μg/ml
Description: as §1, §2, §3, §4, §5, §6, §9, §10, §7, §8

Trypsin = test: Inhibition of trypsin, solid phase tubulin immunoassay (YL 1/2 antibody), Table I; conditions: trypsin 0.25 μg/ml, 20 mM TRIS pH 7.4, 2 hours at 37° C.; inhibitor 0.01 to 10 μg/ml
Description: as §1, §2, §3, §4, §5, §6, §9, §10, §7, §8

Renin = target: T2, Renin (Homo sapiens, UniProt P00797); test: Inhibition of renin, solid phase tubulin immunoassay, Table I
T2 sequence (P00797 67-406): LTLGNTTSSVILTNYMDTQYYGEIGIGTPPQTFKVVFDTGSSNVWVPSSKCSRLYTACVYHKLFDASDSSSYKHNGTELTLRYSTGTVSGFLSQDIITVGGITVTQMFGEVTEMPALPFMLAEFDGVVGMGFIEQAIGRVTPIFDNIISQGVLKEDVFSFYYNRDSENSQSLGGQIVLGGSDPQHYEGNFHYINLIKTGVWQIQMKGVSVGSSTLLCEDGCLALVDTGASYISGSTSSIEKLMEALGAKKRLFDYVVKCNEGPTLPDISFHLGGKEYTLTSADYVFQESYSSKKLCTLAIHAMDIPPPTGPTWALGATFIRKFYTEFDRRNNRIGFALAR
Description: as §1, §2, §3, §4
(§14) 0.15 ml of a solution containing a proteolytic activity and a known inhibitor (concentration from 0.01 to 10 μg/ml) are added to the wells treated according to Example 2 or Example 2a and incubated for 2 hours at 37° C. […]
as §7, §13

Cathepsin B = Cathepsin B (Homo sapiens, UniProt P07858); test: Inhibition of cathepsin B, solid phase tubulin immunoassay, Table I
Description: as §1, §2, §3, §4, §14, §7, §13

Hiv-1 protease = target: T3, Hiv-1 protease (Human immunodeficiency virus type 1 group M subtype B, UniProt P04585); test: Inhibition of Hiv-1 protease, solid phase tubulin immunoassay, Table I
T3 construct: Hiv-1 protease
Description: as §1, §2, §3, §4, §14, §7, §13

[3] = test system: proteases of the serine class; test: Specificity for protease classes, solid phase tubulin immunoassay; conditions: in words
Description: as §12, §4, §5, §6
Serine class: trypsin (0.25 μg/ml), subtilisin (0.25 μg/ml), elastase (0.5 μg/ml) and cathepsin G (5 μg/ml), in a 20 mM solution of Tris-hydroxymethyl-aminomethanchloride (TRIS) (pH=7.4); […]
as §7, §13

Papain [4] = target: T4, Papain (Carica papaya, UniProt P00784); test: Inhibition of papain, solid phase tubulin immunoassay, Table I; conditions: papain 0.25 μg/ml, 50 mM acetate pH 5.5, 5 mM cysteine, 2 hours at 37° C.; inhibitor 0.01 to 10 μg/ml
T4 sequence (P00784 whole entry, looked up): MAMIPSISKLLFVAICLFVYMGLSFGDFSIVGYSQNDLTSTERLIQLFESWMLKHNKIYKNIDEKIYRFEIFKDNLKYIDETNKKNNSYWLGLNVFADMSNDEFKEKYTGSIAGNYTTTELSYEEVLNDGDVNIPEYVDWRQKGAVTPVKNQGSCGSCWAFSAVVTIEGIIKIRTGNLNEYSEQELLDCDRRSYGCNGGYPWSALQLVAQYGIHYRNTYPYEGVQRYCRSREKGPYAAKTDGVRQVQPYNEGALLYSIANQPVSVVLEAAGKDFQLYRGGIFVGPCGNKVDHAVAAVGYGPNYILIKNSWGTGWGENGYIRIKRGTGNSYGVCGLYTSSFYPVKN
Description: as §1, §2, §3, §4, §5, §6, §11, §10, §7, §8

Cathepsin D = Cathepsin D (Homo sapiens, UniProt P07339); test: Inhibition of cathepsin D, solid phase tubulin immunoassay, Table I
Cathepsin D, sequence (P07339 65-412, species assumed): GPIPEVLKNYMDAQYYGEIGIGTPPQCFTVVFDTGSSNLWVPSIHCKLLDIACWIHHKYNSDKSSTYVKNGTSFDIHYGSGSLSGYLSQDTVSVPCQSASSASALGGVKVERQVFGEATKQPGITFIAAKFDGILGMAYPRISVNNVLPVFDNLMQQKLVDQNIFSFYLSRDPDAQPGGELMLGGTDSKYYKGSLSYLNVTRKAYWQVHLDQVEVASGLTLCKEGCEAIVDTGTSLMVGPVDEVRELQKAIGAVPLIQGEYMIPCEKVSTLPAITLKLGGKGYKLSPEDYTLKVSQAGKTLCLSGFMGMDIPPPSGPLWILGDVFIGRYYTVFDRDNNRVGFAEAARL
Description: as §1, §2, §3, §4, §14, §7, §13

[5] = test system: proteases of the cysteine class; test: Specificity for protease classes, solid phase tubulin immunoassay; conditions: in words
Description: as §12, §4, §5, §6, §11, §10, §7, §13

Pepsin, sequence (P00791 60-385): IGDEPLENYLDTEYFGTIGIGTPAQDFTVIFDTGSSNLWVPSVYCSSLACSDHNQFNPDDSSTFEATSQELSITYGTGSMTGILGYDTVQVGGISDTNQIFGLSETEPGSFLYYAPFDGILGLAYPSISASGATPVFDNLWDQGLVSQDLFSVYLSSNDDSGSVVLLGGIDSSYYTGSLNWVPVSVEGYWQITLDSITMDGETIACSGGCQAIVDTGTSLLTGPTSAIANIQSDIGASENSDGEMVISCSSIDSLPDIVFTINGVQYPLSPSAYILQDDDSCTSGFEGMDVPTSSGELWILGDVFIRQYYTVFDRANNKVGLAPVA

In the case of `CC(C)CC(=O)N[C@H](C(=O)N[C@H](C(=O)N[C@@H](CC(C)C)[C@@H](O)CC(=O)N[C@@H](C)C(=O)N[C@@H](CC(C)C)[C@@H](O)CC(=O)O)C(C)C)C(C)C` [Pepstatin] (Isovaleryl-VV[Sta]A[Sta]-OH), the IC50 (Pepsin; 50% inhibition of pepsin, under the test conditions) is reported as ~0.02 µM, the “Concentration of inhibitor in the proteolytic solution which determines the 50% inhibition of the protease” value (Subtilisin) is reported as “n.i. (no inhibition)” and the IC50 (Papain [1]) is reported as > 14.6 µM. The IC50 (Cathepsin G) was > 14.6 µM, the “specific inhibition of proteases of the aspartic class” value [2] was “specific inhibitor for the proteases of the aspartic class” and the “Concentration of inhibitor in the proteolytic solution which determines the 50% inhibition of the protease” value (Elastase) was “n.i. (no inhibition)”. The “Concentration of inhibitor in the proteolytic solution which determines the 50% inhibition of the protease” value (Trypsin) was “n.i. (no inhibition)”.

“α-anti trypsin: inhibitor of the serine class” was tested, and the “Concentration of inhibitor in the proteolytic solution which determines the 50% inhibition of the protease” value (Renin; renin 5 μg/ml, 50 mM acetate pH 5.5, 0.01% Tween 20, 2 hours at 37° C., inhibitor 0.01 to 10 μg/ml) was “n.i. (no inhibition)”, the “Concentration of inhibitor in the proteolytic solution which determines the 50% inhibition of the protease” value (Pepsin; pepsin 5 μg/ml, 50 mM acetate pH 5.5, 0.01% Tween 20, 2 hours at 37° C., inhibitor 0.01 to 10 μg/ml) was “n.i. (no inhibition)” and the “Concentration of inhibitor in the proteolytic solution which determines the 50% inhibition of the protease” value (Cathepsin B; cathepsin B 10 μg/ml, 50 mM acetate pH 5.5, 5 mM cysteine, 2 hours at 37° C., inhibitor 0.01 to 10 μg/ml) was “n.i. (no inhibition)”. The “Concentration of inhibitor in the proteolytic solution which determines the 50% inhibition of the protease” value (Hiv-1 protease; Hiv-1 protease 5 μg/ml, 50 mM acetate pH 5.5, 0.01% Tween 20, 2 hours at 37° C., inhibitor 0.01 to 10 μg/ml) was “n.i. (no inhibition)”, the “Concentration of inhibitor in the proteolytic solution which determines the 50% inhibition of the protease” value (Subtilisin) was 7.5 µg/mL and the “specific inhibition of proteases of the serine class” value [3] was “specific inhibition”. The “Concentration of inhibitor in the proteolytic solution which determines the 50% inhibition of the protease” value (Papain [4]) was “n.i. (no inhibition)”, the “Concentration of inhibitor in the proteolytic solution which determines the 50% inhibition of the protease” value (Cathepsin G; cathepsin G 5 μg/ml, 20 mM TRIS pH 7.4, 2 hours at 37° C., inhibitor 0.01 to 10 μg/ml) was “n.i. (no inhibition)” and the “Concentration of inhibitor in the proteolytic solution which determines the 50% inhibition of the protease” value (Elastase) was 1.0 µg/mL. The “Concentration of inhibitor in the proteolytic solution which determines the 50% inhibition of the protease” value (Trypsin) was 1.0 µg/mL and the “Concentration of inhibitor in the proteolytic solution which determines the 50% inhibition of the protease” value (Cathepsin D; cathepsin D 5 μg/ml, 50 mM acetate pH 5.5, 0.01% Tween 20, 2 hours at 37° C., inhibitor 0.01 to 10 μg/ml) was “n.i. (no inhibition)”.

For `CC(=O)N[C@@H](CC(C)C)C(=O)N[C@@H](CC(C)C)C(=O)N[C@H](C=O)CCCNC(=N)N` [Leupeptin], the IC50 (Renin) was > 23.4 µM, the IC50 (Pepsin) was > 23.4 µM and the IC50 (Cathepsin B) was 5.86 µM. For the same compound, the IC50 (Hiv-1 protease) was > 23.4 µM, the “Concentration of inhibitor in the proteolytic solution which determines the 50% inhibition of the protease” value (Subtilisin) was “n.i. (no inhibition)” and the “specific inhibition of proteases of the cysteine class” value [5] was “specific inhibition”. For the same compound, the IC50 (Papain [1]) was 0.117 µM, the IC50 (Cathepsin G) was > 23.4 µM and the “Concentration of inhibitor in the proteolytic solution which determines the 50% inhibition of the protease” value (Elastase) was “n.i. (no inhibition)”. For the same compound, the “Concentration of inhibitor in the proteolytic solution which determines the 50% inhibition of the protease” value (Trypsin) was “n.i. (no inhibition)” and the IC50 (Cathepsin D) was > 23.4 µM.
